Reference: patent US6855710B2, “Substituted indolines with an inhibitory effect on various kinases and complexes of CDKs” (Boehringer Ingelheim Pharma KG, priority 1998, dated 2005)

| SMILES | melting point |
| --- | --- |
| CN(C)CCS(=O)(=O)Nc1ccc(N/C(=C2\C(=O)Nc3ccccc32)c2ccccc2)cc1 [Example 379, (Z)-3-{1-[4-(2-dimethylamino-ethylsulphonylamino)-phenylamino]-1-phenyl-methylidene}-2-indolinone] | 214 to 216 °C |
| O=C1Nc2ccccc2/C1=C(/Nc1ccc(NS(=O)(=O)CCN2CCCCC2)cc1)c1ccccc1 [Example 380, (Z)-3-{1-[4-(2-piperidinoethylsulphonylamino)-phenylamino]-1-phenyl-methylidene}-2-indolinone] | 225 to 227 °C |
| CN(c1ccc(N/C(=C2\C(=O)Nc3ccccc32)c2ccccc2)cc1)S(=O)(=O)CCN1CCOCC1 [Example 384, (Z)-3-{1-[4-(N-(2-morpholinoethylsulphonyl)-N-methyl-amino)-phenylamino]-1-phenyl-methylidene}-2-indolinone] | 115 to 117 °C |
| O=C1Nc2ccccc2/C1=C(/Nc1ccc(C(=O)N2CCCC2)cc1)c1ccccc1 [Example 386, (Z)-3-{1-[4-(pyrrolidin-1-ylcarbonyl)-phenylamino]-1-phenyl-methylidene}-2-indolinone] | 127 to 129 °C |
| COCCNC(=O)c1ccc(N/C(=C2\C(=O)Nc3ccccc32)c2ccccc2)cc1 [Example 388, (Z)-3-{1-[4-(2-methoxyethylaminocarbonyl)-phenylamino]-1-phenyl-methylidene}-2-indolinone] | 277 to 279 °C |
| COCCN(C)C(=O)c1ccc(N/C(=C2\C(=O)Nc3ccccc32)c2ccccc2)cc1 [Example 389, (Z)-3-{1-[4-(N-(2-methoxyethyl)-N-methyl-aminocarbonyl)-phenylamino]-1-phenyl-methylidene}-2-indolinone] | 198 to 200 °C |
| CN(C)CCNC(=O)c1ccc(N/C(=C2\C(=O)Nc3ccccc32)c2ccccc2)cc1 [Example 390, (Z)-3-{1-[4-(2-dimethylamino-ethylaminocarbonyl)-phenylamino]-1-phenyl-methylidene}-2-indolinone] | 145 to 147 °C |
| CN(C)CCN(C)C(=O)c1ccc(N/C(=C2\C(=O)Nc3ccccc32)c2ccccc2)cc1 [Example 391, (Z)-3-{1-[4-(N-(2-dimethylaminoethyl)-N-methyl-aminocarbonyl)-phenylamino]-1-phenyl-methylidene}-2-indolinone] | 181 to 183 °C |
| O=C(O)CNC(=O)c1ccc(N/C(=C2\C(=O)Nc3ccccc32)c2ccccc2)cc1 [Example 393, (Z)-3-{1-[4-(carboxymethylaminocarbonyl)-phenylamino]-1-phenyl-methylidene}-2-indolinone] | 245 to 247 °C |
| CN(C)CCNS(=O)(=O)c1ccc(N/C(=C2\C(=O)Nc3ccccc32)c2ccccc2)cc1 [Example 399, (Z)-3-{1-[4-(2-dimethylamino-ethylaminosulphonyl)-phenylamino]-1-phenyl-methylidene}-2-indolinone] | 233 to 235 °C |
| CN(C)CCN(C)S(=O)(=O)c1ccc(N/C(=C2\C(=O)Nc3ccccc32)c2ccccc2)cc1 [Example 400, (Z)-3-{1-[4-(N-(2-dimethylaminoethyl)-N-methyl-aminosulphonyl)-phenylamino]-1-phenyl-methylidene}-2-indolinone] | 200 to 203 °C |
| CN(C)S(=O)(=O)c1ccc(N/C(=C2\C(=O)Nc3ccccc32)c2ccccc2)cc1 [Example 405, (Z)-3-{1-[4-(dimethylaminosulphonyl)-phenylamino]-1-phenyl-methylidene}-2-indolinone] | 280 °C |
| O=C(O)CNS(=O)(=O)c1ccc(N/C(=C2\C(=O)Nc3ccccc32)c2ccccc2)cc1 [Example 407, (Z)-3-{1-[4-(carboxymethylaminosulphonyl)-phenylamino]-1-phenyl-methylidene}-2-indolinone] | 236 °C (dec.) |
| CCOC(=O)CN(C)S(=O)(=O)c1ccc(N/C(=C2\C(=O)Nc3ccccc32)c2ccccc2)cc1 [Example 408, (Z)-3-{1-[4-(N-ethoxycarbonylmethyl-N-methyl-aminosulphonyl)-phenylamino]-1-phenyl-methylidene}-2-indolinone] | 178 to 180 °C |
| CN(CC(=O)O)S(=O)(=O)c1ccc(N/C(=C2\C(=O)Nc3ccccc32)c2ccccc2)cc1 [Example 409, (Z)-3-{1-[4-(N-carboxymethyl-N-methyl-aminosulphonyl)-phenylamino]-1-phenyl-methylidene}-2-indolinone] | 237 °C (dec.) |

Second part, the compound after the results:

| melting point | SMILES |
| --- | --- |
| 240 to 242 °C | O=C1Nc2ccccc2/C1=C(/Nc1ccc(NS(=O)(=O)CCN2CCOCC2)cc1)c1ccccc1 [Example 381, (Z)-3-{1-[4-(2-morpholinoethylsulphonylamino)-phenylamino]-1-phenyl-methylidene}-2-indolinone] |
| 165 to 168 °C | CN(C)CCS(=O)(=O)N(C)c1ccc(N/C(=C2\C(=O)Nc3ccccc32)c2ccccc2)cc1 [Example 382, (Z)-3-{1-[4-(N-(2-dimethylamino-ethylsulphonyl)-N-methyl-amino)-phenylamino]-1-phenyl-methylidene}-2-indolinone] |
| 121 to 123 °C | CN(c1ccc(N/C(=C2\C(=O)Nc3ccccc32)c2ccccc2)cc1)S(=O)(=O)CCN1CCCCC1 [Example 383, (Z)-3-{1-[4-(N-(2-piperidinoethylsulphonyl)-N-methyl-amino)-phenylamino]-1-phenyl-methylidene}-2-indolinone] |
| 212 to 214 °C | O=C1Nc2ccccc2/C1=C(/Nc1ccc(C(=O)N2CCCCC2)cc1)c1ccccc1 [Example 387, (Z)-3-{1-[4-(piperidinocarbonyl)-phenylamino]-1-phenyl-methylidene}-2-indolinone] |
| 235 to 237 °C | CCOC(=O)CNC(=O)c1ccc(N/C(=C2\C(=O)Nc3ccccc32)c2ccccc2)cc1 [Example 392, (Z)-3-{1-[4-(ethoxycarbonylmethylaminocarbonyl)-phenylamino]-1-phenyl-methylidene}-2-indolinone] |
| 95 to 98 °C | CCOC(=O)CN(C)C(=O)c1ccc(N/C(=C2\C(=O)Nc3ccccc32)c2ccccc2)cc1 [Example 394, (Z)-3-{1-[4-(N-ethoxycarbonylmethyl-N-methyl-aminocarbonyl)-phenylamino]-1-phenyl-methylidene}-2-indolinone] |
| 168 to 170 °C | CN(CC(=O)O)C(=O)c1ccc(N/C(=C2\C(=O)Nc3ccccc32)c2ccccc2)cc1 [Example 395, (Z)-3-{1-[4-(N-carboxymethyl-N-methyl-aminocarbonyl)-phenylamino]-1-phenyl-methylidene}-2-indolinone] |
| 254 °C | NS(=O)(=O)c1ccc(N/C(=C2\C(=O)Nc3ccccc32)c2ccccc2)cc1 [Example 396, (Z)-3-{1-[4-(aminosulphonyl)-phenylamino]-1-phenyl-methylidene}-2-indolinone] |
| 293 to 294 °C | O=C1Nc2ccccc2/C1=C(/Nc1ccc(S(=O)(=O)N2CCCC2)cc1)c1ccccc1 [Example 397, (Z)-3-{1-[4-(pyrrolidin-1-ylsulphonyl)-phenylamino]-1-phenyl-methylidene}-2-indolinone] |
| 252 to 254 °C | CCN(CC)S(=O)(=O)c1ccc(N/C(=C2\C(=O)Nc3ccccc32)c2ccccc2)cc1 [Example 398, (Z)-3-{1-[4-(diethylaminosulphonyl)-phenylamino]-1-phenyl-methylidene}-2-indolinone] |
| 260 to 261 °C | CN(C)CCNS(=O)(=O)c1ccc(N/C(=C2\C(=O)Nc3ccc([N+](=O)[O-])cc32)c2ccccc2)cc1 [Example 401, (Z)-3-{1-[4-(2-dimethylamino-ethylaminosulphonyl)-phenylamino]-1-phenyl-methylidene}-5-nitro-2-indolinone] |
| 215 to 218 °C | CN(C)CCN(C)S(=O)(=O)c1ccc(N/C(=C2\C(=O)Nc3ccc([N+](=O)[O-])cc32)c2ccccc2)cc1 [Example 402, (Z)-3-{1-[4-(N-(2-dimethylaminoethyl)-N-methyl-aminosulphonyl)-phenylamino]-1-phenyl-methylidene}-5-nitro-2-indolinone] |
| 268 to 269 °C | CN(C)CCCNS(=O)(=O)c1ccc(N/C(=C2\C(=O)Nc3ccc([N+](=O)[O-])cc32)c2ccccc2)cc1 [Example 403, (Z)-3-{1-[4-(3-dimethylamino-propylaminosulphonyl)-phenylamino]-1-phenyl-methylidene}-5-nitro-2-indolinone] |
| 269 to 270 °C (dec.) | CN(C)CCCN(C)S(=O)(=O)c1ccc(N/C(=C2\C(=O)Nc3ccc([N+](=O)[O-])cc32)c2ccccc2)cc1 [Example 404, (Z)-3-{1-[4-(N-(3-dimethylaminopropyl)-N-methyl-aminosulphonyl)-phenylamino]-1-phenyl-methylidene}-5-nitro-2-indolinone] |
| 196 to 199 °C | CCOC(=O)CNS(=O)(=O)c1ccc(N/C(=C2\C(=O)Nc3ccccc32)c2ccccc2)cc1 [Example 406, (Z)-3-{1-[4-(ethoxycarbonylmethylaminosulphonyl)-phenylamino]-1-phenyl-methylidene}-2-indolinone] |
| 247 to 249 °C | CCOC(=O)CNS(=O)(=O)c1ccc(N/C(=C2\C(=O)Nc3ccc([N+](=O)[O-])cc32)c2ccccc2)cc1 [Example 410, (Z)-3-{1-[4-(ethoxycarbonylmethylaminosulphonyl)-phenylamino]-1-phenyl-methylidene}-5-nitro-2-indolinone] |
| 177 to 180 °C (dec.) | O=C(O)CNS(=O)(=O)c1ccc(N/C(=C2\C(=O)Nc3ccc([N+](=O)[O-])cc32)c2ccccc2)cc1 [Example 411, (Z)-3-{1-[4-(carboxymethylaminosulphonyl)-phenylamino]-1-phenyl-methylidene}-5-nitro-2-indolinone] |
| 281 to 283 °C | CN(C)C(=O)CNS(=O)(=O)c1ccc(N/C(=C2\C(=O)Nc3ccc([N+](=O)[O-])cc32)c2ccccc2)cc1 [Example 412, (Z)-3-{1-[4-(dimethylaminocarbonylmethylaminosulphonyl)-phenylamino]-1-phenyl-methylidene}-5-nitro-2-indolinone] |
